# Experimental data taken from ChEMBL document CHEMBL3507680, “University of Dundee, Gates Library screen for HepG2 cell viability”.
# Test: Human HepG2 cell viability assay in 384 well format
# Assay type: toxicity, cell-based
# Design: dose 125 nL, time 70.5 hour; cytotoxicity at 70.5 h: concentration not given beside the values
# Conditions: HepG2 cells, read-out: Inhibition
row,Compound,cytotoxicity at 70.5 h
1,CC(C)N1CCN(S(=O)(=O)c2ncn(C)c2Cl)CC1,-4.74%
2,CCS(=O)(=O)N1CCc2c(cccc2NC(=O)NCCO)C1,12.8%
3,CCOC(=O)c1coc(N2CCC(C(O)CC(C)C)CC2)n1 (stereo not drawn),-1.6%
4,Cc1cccc(C2CCCN2C(=O)CCS(C)(=O)=O)c1C (stereo not drawn),18.6%
5,Cc1cc(CN(C)C(=O)c2ccc(Cl)c(S(C)(=O)=O)c2)no1,13.8%
6,CC(C)C(=O)N1CCN(Cc2csc(-c3ncccn3)n2)CC1,-2.05%
7,Cc1cc(CN(C)C(=O)C(c2ccccc2C)N(C)C)on1 (stereo not drawn),-6.35%
8,Cn1ccnc1CN1CCCC(Cc2ccccn2)C1 (stereo not drawn),34.7%
9,CCNC(=O)C(C)(C)NC(=O)NCc1cccc(Br)c1,-8.53%
10,COC(=O)CNC(=O)CCCn1cnc2ccccc2c1=O,-1.4%
11,O=S(=O)(c1cnccc1N1CCN(CCO)CC1)N1CCOCC1,11.8%
12,COC(=O)C(NC(=O)C(C)C)c1cc(F)ccc1F (stereo not drawn),-20.7%
13,CC(C)N1CCO[C@@H]2CN(C(=O)Cc3cccs3)CC[C@@H]2C1,-6.99%
14,Cc1cccc(OCC(=O)N2CCN(C3CCOC3=O)CC2)c1C (stereo not drawn),-2.32%
15,O=C(CCc1ccco1)Nc1cccc(S(=O)(=O)C(F)F)c1,-9.11%
16,O=C(c1cccs1)N1CCCC(c2cc(C(F)F)n3ncnc3n2)C1 (stereo not drawn),0.957%
17,CN(C)C(=O)COC1COC2(CCN(S(C)(=O)=O)CC2)C1 (stereo not drawn),-6.01%
18,Cn1cnc(S(=O)(=O)NCC2(O)CCc3ccccc32)c1 (stereo not drawn),9.61%
19,CSCC(C)(O)CNc1cccc(F)c1C#N (stereo not drawn),-15.5%
20,Cc1cccc2c1C(=O)NC(c1cnc(C3CCC3)s1)N2 (stereo not drawn),-21.1%
21,Cc1cccc(C2(C(=O)NS(=O)(=O)c3cnn(C)c3)CCCC2)c1,-1.9%
22,Cc1nc(O)cc(C2CCN(C(=O)CN(C)c3ccccc3)CC2)n1,-3.24%
23,Cc1noc(C)c1CN1C[C@@H]2C[C@@H](C)O[C@@H]2C1,-3.08%

row,Compound,cytotoxicity at 70.5 h
1,CCc1ccc(C(=O)N2CCCC(CNS(C)(=O)=O)C2)o1 (stereo not drawn),-10.7%
2,O=C(NCc1ccc(Cl)cc1)C1=NOC2(CCNC2)C1 (stereo not drawn),-9.72%
3,O=C1CNc2ncnc(N3CCN(Cc4cccc(F)c4)CC3)c2N1,17.9%
4,CC(C)(C)OC(=O)N[C@H]1CCN(c2cncc(Br)c2)C1,23.7%
5,Cc1noc(C)c1CC(=O)N1CCCC(n2ccnc2C)C1 (stereo not drawn),-15.6%
6,CCC(C)NC(=O)c1ccc(NC(=O)CCCn2cncn2)c(C)c1 (stereo not drawn),14.8%
7,CC1c2ccc(F)cc2CCN1C(=O)c1[nH]c(=O)[nH]c(=O)c1N (stereo not drawn),-1.6%
8,CNCC(=O)N1CCCC(c2nccnc2Oc2cccc(F)c2)C1 (stereo not drawn),-10.3%
9,Cc1cncc(C(=O)N2CCCCC2c2nc(C)cs2)c1 (stereo not drawn),17.3%
10,Cc1noc(C)c1CN(Cc1ccccc1)C(C)CN1CCOCC1 (stereo not drawn),-9.44%
11,Cc1ccccc1CN(C)C(=O)CN1CCCCC1Cn1cncn1 (stereo not drawn),-7.31%
12,CCCNC(=O)Cn1c(-n2nc(C)cc2C)nc(CCC)cc1=O,3.03%
13,Cc1cnc2c(S(=O)(=O)NC3CCS(=O)(=O)C3)cccc2c1 (stereo not drawn),-8.37%
14,COC(=O)[C@H]1CN(C(=O)NC(C)C)CCN1C(=O)C1CCCCC1,10.7%
15,Cc1ccc(-c2snnc2C(=O)NCCCO)cc1,-11.1%
16,O=S(=O)(C1CC1)N1Cc2nccn2CC(Cn2cncn2)C1 (stereo not drawn),-4.4%
17,O=C(c1ccccc1)N1CCC[C@]2(C[C@@H](OCc3ccncc3)CO2)C1,-4.9%
18,O=S(=O)(NCC1OCCc2cn(CC3CCOCC3)nc21)C1CC1 (stereo not drawn),-3.73%
19,COC(=O)C(c1cc(F)ccc1F)N(C)C(=O)c1ccnc(C)n1 (stereo not drawn),1.49%
20,CCOCCN1CCC(c2cncc(C)n2)CC1,-1.63%
21,CS(=O)(=O)c1nccn1Cc1ccc(OC(F)F)cc1,-4.68%
22,CCOCc1cc(CNC2CCCc3c2cnn3CC)ccc1OC (stereo not drawn),-1.88%
23,O=C(C1CC1)N1CCCC1c1nnc2n1CCCCC2 (stereo not drawn),0.772%

row,Compound,cytotoxicity at 70.5 h
1,O=C(N[C@@H]1CCC[C@@H](N2CCCC2)[C@@H]1O)c1cnn2cccnc12,-1.75%
2,CCc1nc2n(n1)CC(NCc1cnc(-c3ccccc3)nc1)CC2 (stereo not drawn),29.3%
3,CS(=O)(=O)N1CC2(CCCN(CC3CC3)C2)Cc2ccccc21 (stereo not drawn),-3.95%
4,Cc1noc2ncc(S(=O)(=O)Nc3cc(CC(C)(C)C)[nH]n3)cc12,3.8%
5,c1cnc(N2CCC(C3CCN(CCCn4cccn4)C3)CC2)nc1 (stereo not drawn),0.616%
6,N#CCCN(Cc1cccnc1)C(=O)Cc1ccc(-n2cnnn2)cc1,-10.6%
7,CN(CCCc1nccn1C)c1nccc(-c2cc(C(=O)O)ccn2)n1,-3.33%
8,COc1cc2cc3c(nc2cc1OC)OCCN(Cc1ccco1)C3,8.51%
9,O=C(Cc1ccccc1)N1CCCC2(COCCN(CC3CC3)C2)C1 (stereo not drawn),-0.0192%
10,COc1cccc(-c2noc(C3CCN(CC(N)=O)C3)n2)c1 (stereo not drawn),-4.11%
11,COc1cc(C(=O)N(Cc2cnn(C)c2)C(C)C)ccc1C,-1.26%
12,Cc1nn(C)c(C)c1CN(C)C1CCN(c2ncnc3[nH]cnc23)CC1,23.7%
13,Cc1cccc(CN2C[C@@H]3COC[C@]3(CNC(=O)c3ccsc3)C2)n1,-8.41%
14,Cc1cc(=O)n2nc(Oc3ccc(F)c(F)c3)sc2n1,40.7%
15,COc1ccc(-c2n[nH]cc2CN(C)Cc2nonc2C)c(F)c1,-3.77%
16,O=C(NCCCO)c1nnsc1-c1ccc(Cl)cc1,-13.1%
17,Cc1cc(CN2CCC(C3CCN(CC(C)C)CC3)C2)[nH]n1 (stereo not drawn),-3.48%
18,CN(Cc1cccc(Cl)c1)S(=O)(=O)N1CCOCC1,1.29%
19,NC(CC1CCCCC1)c1ccccc1 (stereo not drawn),5.79%
20,Cc1nc(CN2CCC(C(=O)N(C)C3CCC(C)CC3)CC2)cs1 (stereo not drawn),-3.95%
21,Cc1nc(CCNC(=O)NC2CCCc3c2cnn3CCO)cs1 (stereo not drawn),-9.35%
22,Cc1cnc(NC(=O)C(C)Oc2ccc3c(c2)OCO3)s1 (stereo not drawn),-7.91%
23,Cc1nnc(CN(C)CC(=O)N2CCCC(C(F)(F)F)C2)n1C (stereo not drawn),16.8%

row,Compound,cytotoxicity at 70.5 h
1,CS(=O)(=O)CCN1CC(c2ccccc2)(c2ccccc2)CCC1=O,22.9%
2,O=C(NC1CC1)N1CC[C@H]2[C@H]1CCN2c1ncccn1,-6.35%
3,Cc1cccc(CNC(=O)CC2CCN(S(C)(=O)=O)CC2)n1,-4.65%
4,CCOCCCn1c(NC(=O)c2ccnc(C)n2)nc2ccccc21,25.9%
5,Fc1cc(Cl)cnc1N1CCCC(c2nccn2Cc2ccncc2)C1 (stereo not drawn),-14%
6,c1cc(CN2CCO[C@H]3[C@H](OCC4CCOCC4)CC[C@@H]32)co1,-9.4%
7,Cc1c(C(=O)NCCC(=O)N2CCCC2)cccc1-c1ccccn1,-17.7%
8,CC(NC(=O)Nc1ccc(F)c(F)c1)c1nc[nH]n1 (stereo not drawn),-2.38%
9,Cn1cccc1C(=O)N1CCC2(CC1)c1nc[nH]c1CCN2S(C)(=O)=O,-3.6%
10,CCOCCC(=O)NCc1ccnc(NC2CC2)c1,-3.85%
11,Cc1ncc2c(n1)CN(Cc1nc(-c3cccs3)no1)CC2,9.81%
12,CCCn1cc(C(=O)N[C@H]2CC[C@H](n3cnnc3)CC2)c(C)n1,0.742%
13,NC(=O)CN1CCC(Nc2ccnc3ccc(Cl)cc23)CC1,-1.05%
14,COCCOCC(C)NC(=O)COc1nn(C)c2nc(C)cc(C)c12 (stereo not drawn),-11%
15,CN(Cc1ccccn1)C(CO)c1cccc(Br)c1 (stereo not drawn),-1.08%
16,CCc1nc(C2CCCN(C(=O)c3c(C)noc3C)C2)no1 (stereo not drawn),20.6%
17,Clc1ccccc1CCn1ccnc1-c1cn(C2CCNCC2)nn1,-8.18%
18,Cc1cc(N2CCCC2)nc(CNS(=O)(=O)Cc2ccccc2)n1,-7.92%
19,O=C(c1ccc(C2CCCO2)s1)N1Cc2ccccc2C1 (stereo not drawn),0.527%
20,CCCC(=O)N1CCC([C@@H]2C[C@H](C(F)(F)F)n3nc(C)cc3N2)CC1,-6.51%
21,CC(C)CS(=O)(=O)N1C[C@H]2C[C@H](C(=O)Nc3cccnc3)[C@@H](C1)O2,-6.34%
22,Cn1cc(C2CC(=O)NC23CCN(C(=O)c2cccnc2)CC3)cn1 (stereo not drawn),-3.63%
23,COCC[C@]1(O)CCN(c2ncc(Cl)cc2F)C[C@H]1C,-12.3%

row,Compound,cytotoxicity at 70.5 h
1,CCOc1cccc(C(C)NCc2c(C)nn(C)c2N(C)C)c1 (stereo not drawn),-8.02%
2,CCc1n[nH]c(C2CN(C(=O)c3csnn3)CCO2)n1 (stereo not drawn),-18.6%
3,CCOC(=O)CCNC(=O)N1CCCC(CNC(=O)c2cccs2)C1 (stereo not drawn),-6.29%
4,O=S(=O)(c1ccccc1Cl)N1CCC2(CC1)OCCS2,-9.74%
5,Cn1nnc2c(N3CC(C(=O)NCc4ccccc4F)C3)ncnc21,-8.25%
6,COc1cc2nc(C)n(CC(=O)NCCC(C)C)c(=O)c2cc1OC,-16.6%
7,CCc1nc(C2CCCN(C(=O)c3ccc(O)nc3)C2)no1 (stereo not drawn),3.29%
8,O=C(NC1CCCc2nc(N3CCOCC3)ncc21)C1CCCCC1 (stereo not drawn),13.8%
9,CN(C)CCN1CC(C(=O)N2CCC(c3cccc(O)c3)CC2)CC1=O (stereo not drawn),2.7%
10,CC[C@@]1(O)CCN(CCCOc2ccc(C(N)=O)cc2)C[C@H]1O,-4.97%
11,O=S1(=O)c2ccccc2C2(CCN(Cc3ccccc3)C2)N1CC1CC1 (stereo not drawn),-5.62%
12,CCNC(=O)C(C)NC(=O)c1cnc(-c2ccc(C)cc2C)s1 (stereo not drawn),1.57%
13,Fc1ccc(CN2CC[C@H]3O[C@@H](COCc4cccnc4)CC[C@H]32)cc1,-6.39%
14,CNC(=O)[C@@]12CCO[C@@H]1CCN(S(=O)(=O)c1ccc(C)cc1)C2,-4.45%
15,O=c1c(NCCNCCO)c(N2CCN(c3ccc(F)cc3)CC2)c1=O,-7.08%
16,CN(C)CCn1c([C@H]2CCCO2)cc2cccnc21,-2.03%
17,CCC(=O)Nc1nnc(CCOc2cccc(OC)c2)s1,6.47%
18,CN(C)c1nc2n(c(=O)n1)CCN2C(=O)Nc1ccc(Cl)cc1,-6.29%
19,CN(C(=O)Cc1ccc(NC(=O)NC2CC2)cc1)c1ccccc1,19.9%
20,COc1cccc2c1ccn2CCC(=O)Nc1c2c(nn1C)CSC2,-11.9%
21,COCCS(=O)(=O)Nc1ccc(-n2nccc2C(F)(F)F)cc1,18.2%
